# Reference: patent publication US20230365537A1, “POLO LIKE KINASE 4 INHIBITORS” (ORIC Pharmaceuticals, Inc., priority 2021, published 2023)
# How the values were obtained:
# [1] = molecular target: human recombinant Aurora B (Homo sapiens (Human), UniProt Q96GD4); assay: Aurora B Kinase Biochemical Assay (ADP-Glo); details: ratio of Aurora B IC50 to PLK4 IC50 (selectivity)
# Outline: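 Recombinant human Aurora B (20 nM in pH 7.5 HEPES buffer with MgCl2, EGTA, DTT, Brij-35, BSA) preincubated with compound 15 min at RT. ADP formed quantified by ADP-Glo luminescence after ATP depletion (40 min) and detection (30 min). IC50 from four-parameter non-linear regression.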
# [2] = molecular target: human recombinant Aurora A (Homo sapiens (Human), UniProt O14965); assay: Aurora A Kinase Biochemical Assay (ADP-Glo); details: ratio of Aurora A IC50 to PLK4 IC50 (selectivity)
# Sequence of human recombinant Aurora A (O14965 whole entry): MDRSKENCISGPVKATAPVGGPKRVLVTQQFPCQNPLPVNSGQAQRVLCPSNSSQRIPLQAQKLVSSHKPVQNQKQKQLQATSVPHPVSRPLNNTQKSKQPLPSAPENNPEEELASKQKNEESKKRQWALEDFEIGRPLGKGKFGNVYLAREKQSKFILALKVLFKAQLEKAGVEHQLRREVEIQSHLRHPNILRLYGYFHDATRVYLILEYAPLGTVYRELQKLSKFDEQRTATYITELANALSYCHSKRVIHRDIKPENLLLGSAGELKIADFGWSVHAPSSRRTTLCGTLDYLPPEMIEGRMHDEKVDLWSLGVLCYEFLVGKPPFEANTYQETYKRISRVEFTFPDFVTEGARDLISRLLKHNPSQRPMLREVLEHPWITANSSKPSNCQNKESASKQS
# human recombinant PLK4 = human recombinant PLK4 (Homo sapiens (Human), UniProt O00444); assay: PLK4 Biochemical Assay (ADP-Glo); details: 0.5 nM PLK4, 8.0 µM ATP, 4.7 µM MBP, 6 hours at RT
# Sequence of human recombinant PLK4 (O00444 whole entry): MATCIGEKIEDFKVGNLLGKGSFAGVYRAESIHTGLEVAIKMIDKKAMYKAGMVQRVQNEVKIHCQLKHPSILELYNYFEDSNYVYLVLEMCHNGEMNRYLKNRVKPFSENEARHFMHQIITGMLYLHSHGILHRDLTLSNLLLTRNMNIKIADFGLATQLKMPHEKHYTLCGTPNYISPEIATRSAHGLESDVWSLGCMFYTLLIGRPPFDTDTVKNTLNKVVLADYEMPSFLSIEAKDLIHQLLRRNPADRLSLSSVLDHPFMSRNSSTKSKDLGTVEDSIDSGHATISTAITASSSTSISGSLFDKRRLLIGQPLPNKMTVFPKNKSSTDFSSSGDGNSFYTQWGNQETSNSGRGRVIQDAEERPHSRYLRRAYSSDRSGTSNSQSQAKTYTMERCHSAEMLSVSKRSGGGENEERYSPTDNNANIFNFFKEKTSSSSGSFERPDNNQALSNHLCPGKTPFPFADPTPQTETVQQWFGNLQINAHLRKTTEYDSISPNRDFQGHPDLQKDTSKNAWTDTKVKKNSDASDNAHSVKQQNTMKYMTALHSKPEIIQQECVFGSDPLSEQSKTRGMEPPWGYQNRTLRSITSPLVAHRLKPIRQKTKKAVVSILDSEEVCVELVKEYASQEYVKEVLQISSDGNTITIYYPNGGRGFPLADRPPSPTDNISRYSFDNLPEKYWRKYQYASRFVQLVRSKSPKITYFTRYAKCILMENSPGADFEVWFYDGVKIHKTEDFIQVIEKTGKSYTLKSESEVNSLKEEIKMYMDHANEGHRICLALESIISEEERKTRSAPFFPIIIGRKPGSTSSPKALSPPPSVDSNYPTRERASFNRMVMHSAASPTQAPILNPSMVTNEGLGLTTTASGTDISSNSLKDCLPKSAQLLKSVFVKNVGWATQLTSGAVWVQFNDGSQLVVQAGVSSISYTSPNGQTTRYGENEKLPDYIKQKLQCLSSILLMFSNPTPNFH
# Outline: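 Recombinant human PLK4 (added at 1.0 nM) was preincubated 15 min at RT with compound in 50 mM HEPES pH 7.5, 10 mM MgCl2, 1 mM EGTA, 1 mM DTT, 0.01% Brij-35, 0.01% BSA. ADP formed was detected by ADP-Glo luminescence (40 min ATP depletion, 30 min detection). IC50 came from a four-parameter fit.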
# Sequence of human recombinant Aurora B (Q96GD4 whole entry): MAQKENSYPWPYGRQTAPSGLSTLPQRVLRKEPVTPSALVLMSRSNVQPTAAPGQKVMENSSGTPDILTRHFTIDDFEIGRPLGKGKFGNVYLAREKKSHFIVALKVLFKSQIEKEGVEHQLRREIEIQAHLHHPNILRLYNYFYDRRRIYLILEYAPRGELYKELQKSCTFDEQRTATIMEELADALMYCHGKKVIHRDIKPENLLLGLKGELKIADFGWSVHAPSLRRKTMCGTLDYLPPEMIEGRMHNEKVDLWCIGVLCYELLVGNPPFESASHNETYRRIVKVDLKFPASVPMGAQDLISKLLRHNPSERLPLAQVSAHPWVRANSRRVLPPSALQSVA
SMILES,[Aurora B IC50 (nM)]/[PLK4 IC50 (nM)] [1],[Aurora A IC50 (nM)]/[PLK4 IC50 (nM)] [2],IC50 (human recombinant PLK4) [nM]
"COc1ccc2c(c1)[C@]1(C[C@H]1c1ccc3c(Nc4nc(C)ncc4SC)n[nH]c3c1)C(=O)N2 [Example 162, (1R,2S)-5′-methoxy-2-(3-{[2-methyl-5-(methylsulfanyl)pyrimidin-4-yl]amino}-1H-indazol-6-yl)spiro[cyclopropane-1,3′-indol]-2′(1′H)-one]",105.2895,648.6776,8.39
"COc1ccc2c(c1)[C@]1(C[C@H]1c1ccc3c(Nc4cc(C(=O)N(C)C)cnc4OC)n[nH]c3c1)C(=O)N2 [Example 181, 6-methoxy-5-({6-[(1R,2S)-5′-methoxy-2′-oxo-1′,2′-dihydrospiro[cyclopropane-1,3′-indol]-2-yl]-1H-indazol-3-yl}amino)-N,N-dimethylpyridine-3-carboxamide]",3693.2418,2415.5227,7.58
"COc1ccc2c(c1)[C@]1(C[C@H]1c1ccc3c(Nc4nc(N(C)C)ncc4C)n[nH]c3c1)C(=O)N2 [Example 182, (1R,2S)-2-(3-{[2-(dimethylamino)-5-methylpyrimidin-4-yl]amino}-1H-indazol-6-yl)-5′-methoxyspiro[cyclopropane-1,3′-indol]-2′(1′H)-one]",198.8774,53.6821,4.45
"COc1ccc2c(c1)[C@]1(C[C@H]1c1ccc3c(Nc4cc(F)c(C(=O)N(C)C)cc4OC)n[nH]c3c1)C(=O)N2 [Example 206, 2-fluoro-5-methoxy-4-({6-[(1R,2S)-5′-methoxy-2′-oxo-1’,2′-dihydrospiro[cyclopropane-1,3′-indol]-2-yl]-1H-indazol-3-yl}amino)-N,N-dimethylbenzamide]",80.2233,618.8586,0.806
"COc1ccc2c(c1)[C@]1(C[C@H]1c1ccc3c(Nc4cc(F)c(C(=O)N5CCOCC5)cc4OC)n[nH]c3c1)C(=O)N2 [Example 207, (1R,2S)-2-{3-[5-fluoro-2-methoxy-4-(morpholine-4-carbonyl)anilino]-1H-indazol-6-yl}-5′-methoxyspiro[cyclopropane-1,3′-indol]-2′(1′H)-one]",111.6597,497.3739,0.952
"COc1ccc2c(c1)[C@]1(C[C@H]1c1ccc3c(Nc4cc(N5CCCC5=O)cnc4OC)n[nH]c3c1)C(=O)N2 [Example 220, (1R,2S)-5′-methoxy-2-(3-{[2-methoxy-5-(2-oxopyrrolidin-1-yl)pyridin-3-yl]amino}-1H-indazol-6-yl)spiro[cyclopropane-1,3′-indol]-2′(1′H)-one]",498.7527,1042.4081,6.01
"COc1ccc2c(c1)[C@]1(C[C@H]1c1ccc3c(Nc4ncc(C(=O)N(C)C)nc4OC)n[nH]c3c1)C(=O)N2 [Example 236, 6-methoxy-5-({6-[(1R,2S)-5′-methoxy-2′-oxo-1′,2′-dihydrospiro[cyclopropane-1,3′-indol]-2-yl]-1H-indazol-3-yl}amino)-N,N-dimethylpyrazine-2-carboxamide]",114.8983,949.6021,2.26
"COc1ccc2c(c1)[C@]1(C[C@H]1c1ccc3c(Nc4ccc(C(=O)NC(CF)CF)nc4OC)n[nH]c3c1)C(=O)N2 [Example 250, N-(1,3-difluoropropan-2-yl)-6-methoxy-5-({6-[(1R,2S)-5′-methoxy-2′-oxo-1′,2′-dihydrospiro[cyclopropane-1,3′-indol]-2-yl]-1H-indazol-3-yl}amino)pyridine-2-carboxamide]",110.6011,819.6509,6.19
"COc1ccc2c(c1)[C@]1(C[C@H]1c1ccc3c(Nc4cc5oc(C)nc5cc4Cl)n[nH]c3c1)C(=O)N2 [Example 252, (1R,2S)-2-{3-[(5-chloro-2-methyl-1,3-benzoxazol-6-yl)amino]-1H-indazol-6-yl}-5′-methoxyspiro[cyclopropane-1,3′-indol]-2′(1′H)-one]",365.8694,518.4227,9.28
"COc1ccc2c(c1)[C@]1(C[C@H]1c1ccc3c(Nc4cnc(C(=O)N(C)C)cc4OC)n[nH]c3c1)C(=O)N2 [Example 253, 4-methoxy-5-({6-[(1R,2S)-5′-methoxy-2′-oxo-1′,2′-dihydrospiro[cyclopropane-1,3′-indol]-2-yl]-1H-indazol-3-yl}amino)-N,N-dimethylpyridine-2-carboxamide]",88.7161,709.6288,5.98
"COc1ccc2c(c1)[C@]1(C[C@H]1c1ccc3c(Nc4ccc(C#N)nc4OC)n[nH]c3c1)C(=O)N2 [Example 260, 6-methoxy-5-({6-[(1R,2S)-5′-methoxy-2′-oxo-1′,2′-dihydrospiro[cyclopropane-1,3′-indol]-2-yl]-1H-indazol-3-yl}amino)pyridine-2-carbonitrile]",294.8429,1330.5457,9.33
"CCP(=O)(CC)c1ccc(OC)c(Nc2n[nH]c3cc([C@@H]4C[C@@]45C(=O)Nc4ccc(OC)cc45)ccc23)c1 [Example 261, (1R,2S)-2-{3-[5-(diethylphosphoryl)-2-methoxyanilino]-1H-indazol-6-yl}-5′-methoxyspiro[cyclopropane-1,3′-indol]-2′(1′H)-one]",2807.8381,5824.2730,7.91

# Now from value to compound:
[Aurora B IC50 (nM)]/[PLK4 IC50 (nM)] [1],[Aurora A IC50 (nM)]/[PLK4 IC50 (nM)] [2],IC50 (human recombinant PLK4) [nM],SMILES
130.8780,1669.4278,7.85,"COc1ccc2c(c1)[C@]1(C[C@H]1c1ccc3c(Nc4ncc(P(C)(C)=O)nc4OC)n[nH]c3c1)C(=O)N2 [Example 229, (1R,2S)-2-(3-{[5-(dimethylphosphoryl)-3-methoxypyrazin-2-yl]amino}-1H-indazol-6-yl)-5′-methoxyspiro[cyclopropane-1,3′-indol]-2′(1′H)-one]"
260.3503,2053.4808,2.17,"COc1ccc2c(c1)[C@]1(C[C@H]1c1ccc3c(Nc4ncc(C(=O)N5CC(OC)C5)cc4OC)n[nH]c3c1)C(=O)N2 [Example 235, (1R,2S)-5′-methoxy-2-(3-{[3-methoxy-5-(3-methoxyazetidine-1-carbonyl)pyridm-2-yl]amino}-1H-indazol-6-yl)spiro[cyclopropane-1,3′-indol]-2′(1′H)-one]"
369,3385.3211,2.94,"CCOc1nc(C(=O)N(C)C)cnc1Nc1n[nH]c2cc([C@@H]3C[C@@]34C(=O)Nc3ccc(OC)cc34)ccc12 [Example 237, 6-ethoxy-5-({6-[(1R,2S)-5′-methoxy-2′-oxo-1′,2′-dihydrospiro[cyclopropane-1,3′-indol]-2-yl]-1H-indazol-3-yl}amino)-N,N-dimethylpyrazine-2-carboxamide]"
451.7751,2585.7077,6.56,"COc1ccc2c(c1)[C@]1(C[C@H]1c1ccc3c(Nc4cnc(P(C)(C)=O)cc4OC)n[nH]c3c1)C(=O)N2 [Example 249, (1R,2S)-2-(3-{[6-(dimethylphosphoryl)-4-methoxypyridin-3-yl]amino}-1H-indazol-6-yl)-5′-methoxyspiro[cyclopropane-1,3′-indol]-2′(1′H)-one]"
230,2162.7118,0.59,"CCOc1cc(S(=O)(=O)NC)cnc1Nc1n[nH]c2cc([C@@H]3C[C@@]34C(=O)Nc3ccc(OC)cc34)ccc12 [Example 275, 5-ethoxy-6-({6-[(1R,2S)-5′-methoxy-2′-oxo-1′,2′-dihydrospiro[cyclopropane-1,3′-indol]-2-yl]-1H-indazol-3-yl}amino)-N-methylpyridine-3-sulfonamide]"
1049.1355,1120.5641,2.2,"CCOc1cc(=O)n(C)nc1Nc1n[nH]c2cc([C@@H]3C[C@@]34C(=O)Nc3ccc(OC)cc34)ccc12 [Example 277, (1R,2S)-2-{3-[(4-ethoxy-1-methyl-6-oxo-1,6-dihydropyridazin-3-yl)amino]-1H-indazol-6-yl}-5′-methoxyspiro[cyclopropane-1,3′-indol]-2′(1′H)-one]"
423.6318,1269.9004,0.804,"COc1ccc2c(c1)[C@]1(C[C@H]1c1ccc3c(Nc4nc(C(C)(C)O)ccc4OC)n[nH]c3c1)C(=O)N2 [Example 278, (1R,2S)-2-(3-{[6-(2-hydroxypropan-2-yl)-3-methoxypyridin-2-yl]amino}-1H-indazol-6-yl)-5′-methoxy-1′H-spiro[cyclopropane-1,3′-indol]-2′-one]"
2792.6646,37425.1497,1.34,"CCOc1cc(S(C)(=O)=O)ncc1Nc1n[nH]c2cc([C@@H]3C[C@@]34C(=O)Nc3ccc(OC)cc34)ccc12 [Example 279, (1R,2S)-2-{3-[(4-ethogy-6-methanesulfonylpyridin-3-yl)amino]-1H-indazol-6-yl}-5′-methoxy-1′H-spiro[cyclopropane-1,3′-indol]-2′-one]"
